# In the supplement of paper PMC10307832:
# Compound: C[C@@H](C(=O)N[C@@H](C1CCCCC1)C(=O)N2CCC[C@H]2C(=O)N[C@@H]3[C@@H](CC4=CC=CC=C34)OCC#CC#CCO[C@@H]5CC6=CC=CC=C6[C@@H]5NC(=O)[C@@H]7CCCN7C(=O)[C@H](C8CCCCC8)NC(=O)[C@H](C)NC)NC [AZD5582] + C[C@]1(O)C[C@@H](c2nc(-c3ccc4ccc(-c5ccccc5)nc4c3)c3c(N)nccn32)C1 [Linsitinib] (partner 1 µM)
# Assay: relative viability (nuclei count vs DMSO), 5 days (fraction); higher = more cells survive
# Details: first compound 0.05 µM
# In short: (§1)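 Nuclei were stained with Hoechst during a one-step fixation (final 0.05% Triton X-100, 1% formaldehyde, 1 ug/ml Hoechst) carried out 5 days after dosing, then counted on 4× images. The cells, lung cancer lines in 1536-well plates, had been dosed by pin tool the day after seeding with one drug alone or a fixed anchor-drug dose plus five library-drug doses (not always all listed) in √10 steps. Relative viability is the nuclei count in treated wells divided by that in vehicle wells, and each value is the median of duplicate plates.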
row,Cell Line,relative viability
1,LOU-NH91,1.04
2,LU99A,0.752
3,LXF-289,0.998
4,NCI-H23,0.418
5,NCI-H441,0.389
6,NCI-H1299,0.97
7,NCI-H1395,1.11
8,NCI-H1793,1.11

# Compound: C[C@@H](C(=O)N[C@@H](C1CCCCC1)C(=O)N2CCC[C@H]2C(=O)N[C@@H]3[C@@H](CC4=CC=CC=C34)OCC#CC#CCO[C@@H]5CC6=CC=CC=C6[C@@H]5NC(=O)[C@@H]7CCCN7C(=O)[C@H](C8CCCCC8)NC(=O)[C@H](C)NC)NC [AZD5582] + C[C@@H](Oc1cc(-c2cnn(C3CCNCC3)c2)cnc1N)c1c(Cl)ccc(F)c1Cl [Crizotinib] (partner 1 µM)
# Assay: as above
# Details: first compound 0.001581 µM
# In short: as §1
row,Cell Line,relative viability
1,201T,1.09
2,A549,0.504
3,A-427,0.623
4,ABC-1,0.737
5,BEN,0.658
6,COR-L23,0.539
7,COR-L 105,0.667
8,Calu-6,0.432
9,ChaGo-K-1,0.988
10,EBC-1,0.178
11,EKVX,0.713
12,EMC-BAC-2,0.637
13,EPLC-272H,0.187
14,H3255,0.825
15,HARA,1.01
16,HCC-15,0.646
17,HCC-44,0.5

row,Cell Line,relative viability
1,HCC-78,0.294
2,HCC-366,0.476
3,HCC-827,0.885
4,HOP-62,0.781
5,IA-LM,0.546
6,LC-2-ad,0.457
7,LCLC-103H,1.1
8,LK-2,0.225
9,LOU-NH91,0.713
10,LU99A,0.548
11,LXF-289,0.75
12,NCI-H23,0.328
13,NCI-H441,0.621
14,NCI-H1299,0.895
15,NCI-H1650,0.904
16,NCI-H2170,1.1

# Same assay, conditions: first compound 0.005 µM
row,Cell Line,relative viability
1,201T,1.12
2,A549,0.923
3,A-427,0.751
4,ABC-1,0.863
5,BEN,0.784
6,CAL-12T,0.175
7,COR-L23,0.682
8,COR-L 105,0.82
9,Calu-6,0.384
10,ChaGo-K-1,1.1
11,EBC-1,0.233
12,EKVX,0.9
13,EMC-BAC-2,0.551
14,EPLC-272H,0.131
15,H3255,0.712
16,HARA,0.894
17,HCC-15,0.536
18,HCC-44,0.457

row,Cell Line,relative viability
1,HCC-78,0.353
2,HCC-366,0.517
3,HCC-827,1.02
4,HOP-62,1.05
5,IA-LM,0.63
6,LC-2-ad,0.454
7,LCLC-97TM1,0.269
8,LCLC-103H,1.08
9,LK-2,0.218
10,LOU-NH91,0.746
11,LU99A,0.685
12,LXF-289,0.788
13,NCI-H23,0.316
14,NCI-H441,0.567
15,NCI-H1299,0.895
16,NCI-H1650,0.964
17,NCI-H2170,1.25

# Same assay, conditions: first compound 0.01581 µM
row,Cell Line,relative viability
1,201T,1.04
2,A549,0.667
3,A-427,0.97
4,ABC-1,1.04
5,BEN,0.979
6,CAL-12T,0.531
7,COR-L23,0.629
8,COR-L 105,0.684
9,Calu-6,0.837
10,ChaGo-K-1,1.13
11,EBC-1,0.181
12,EKVX,0.753
13,EMC-BAC-2,0.682
14,EPLC-272H,0.746
15,H3255,0.743
16,HARA,1.04
17,HCC-15,0.754
18,HCC-44,0.793

row,Cell Line,relative viability
1,HCC-78,0.312
2,HCC-366,0.56
3,HCC-827,0.926
4,HOP-62,1
5,IA-LM,0.818
6,LC-2-ad,0.384
7,LCLC-97TM1,0.338
8,LCLC-103H,1.02
9,LK-2,0.218
10,LOU-NH91,0.729
11,LU99A,0.501
12,LXF-289,0.788
13,NCI-H23,0.498
14,NCI-H441,0.62
15,NCI-H1299,0.994
16,NCI-H1650,0.88
17,NCI-H2170,1.18

# Same assay, conditions: first compound 0.05 µM
row,Cell Line,relative viability
1,201T,1.25
2,A549,0.826
3,A-427,0.618
4,ABC-1,0.919
5,BEN,0.848
6,CAL-12T,0.192
7,COR-L23,0.796
8,COR-L 105,0.817
9,Calu-6,0.336
10,ChaGo-K-1,1.23
11,EBC-1,0.208
12,EKVX,0.96
13,EMC-BAC-2,0.236
14,EPLC-272H,0.0674
15,H3255,0.756
16,HARA,1
17,HCC-15,0.455
18,HCC-44,0.378

row,Cell Line,relative viability
1,HCC-78,0.426
2,HCC-366,0.635
3,HCC-827,0.898
4,HOP-62,0.875
5,IA-LM,0.699
6,LC-2-ad,0.391
7,LCLC-97TM1,0.257
8,LCLC-103H,0.777
9,LK-2,0.24
10,LOU-NH91,0.741
11,LU99A,0.672
12,LXF-289,0.725
13,NCI-H23,0.299
14,NCI-H441,0.491
15,NCI-H1299,0.901
16,NCI-H1650,0.736
17,NCI-H2170,1.47
